# B1: Cas9 (A175-307): Cas9 mutant lacking the REC2 domain, SEQ ID NO: 116 (protein)
# chain: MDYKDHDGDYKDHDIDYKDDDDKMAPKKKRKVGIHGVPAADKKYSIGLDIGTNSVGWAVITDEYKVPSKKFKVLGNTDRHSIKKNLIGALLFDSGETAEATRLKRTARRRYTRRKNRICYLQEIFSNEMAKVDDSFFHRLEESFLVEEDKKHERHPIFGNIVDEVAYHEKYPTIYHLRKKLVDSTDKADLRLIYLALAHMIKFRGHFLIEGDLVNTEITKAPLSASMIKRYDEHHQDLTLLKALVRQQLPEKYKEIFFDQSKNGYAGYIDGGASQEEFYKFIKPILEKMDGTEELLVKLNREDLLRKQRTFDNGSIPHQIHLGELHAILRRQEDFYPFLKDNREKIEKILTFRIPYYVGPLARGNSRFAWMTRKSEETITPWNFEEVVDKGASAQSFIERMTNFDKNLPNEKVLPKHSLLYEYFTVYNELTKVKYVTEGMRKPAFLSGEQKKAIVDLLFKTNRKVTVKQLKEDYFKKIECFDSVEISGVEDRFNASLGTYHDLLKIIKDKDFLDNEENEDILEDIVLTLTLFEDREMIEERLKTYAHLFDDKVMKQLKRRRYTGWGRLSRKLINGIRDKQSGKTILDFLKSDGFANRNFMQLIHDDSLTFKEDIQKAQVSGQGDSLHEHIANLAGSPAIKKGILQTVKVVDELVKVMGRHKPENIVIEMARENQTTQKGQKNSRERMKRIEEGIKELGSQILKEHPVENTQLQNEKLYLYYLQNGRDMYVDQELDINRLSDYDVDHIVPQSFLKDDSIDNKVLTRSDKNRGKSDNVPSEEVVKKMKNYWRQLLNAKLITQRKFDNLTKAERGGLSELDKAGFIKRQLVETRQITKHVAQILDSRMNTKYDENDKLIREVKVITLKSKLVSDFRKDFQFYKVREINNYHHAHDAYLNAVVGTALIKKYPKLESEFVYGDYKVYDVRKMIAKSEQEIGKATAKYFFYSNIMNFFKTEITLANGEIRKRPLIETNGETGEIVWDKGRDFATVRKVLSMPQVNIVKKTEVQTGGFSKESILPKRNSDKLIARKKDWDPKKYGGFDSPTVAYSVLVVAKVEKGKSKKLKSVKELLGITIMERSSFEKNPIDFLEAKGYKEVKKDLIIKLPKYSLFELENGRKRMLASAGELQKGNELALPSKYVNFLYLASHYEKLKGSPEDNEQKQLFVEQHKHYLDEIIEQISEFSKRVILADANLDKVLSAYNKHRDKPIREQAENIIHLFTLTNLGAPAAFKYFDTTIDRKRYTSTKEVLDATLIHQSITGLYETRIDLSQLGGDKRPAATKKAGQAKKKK
# B2: A1099-1368: SpCas9 with deletion of the PI domain, SEQ ID NO: 118 (protein)
# chain: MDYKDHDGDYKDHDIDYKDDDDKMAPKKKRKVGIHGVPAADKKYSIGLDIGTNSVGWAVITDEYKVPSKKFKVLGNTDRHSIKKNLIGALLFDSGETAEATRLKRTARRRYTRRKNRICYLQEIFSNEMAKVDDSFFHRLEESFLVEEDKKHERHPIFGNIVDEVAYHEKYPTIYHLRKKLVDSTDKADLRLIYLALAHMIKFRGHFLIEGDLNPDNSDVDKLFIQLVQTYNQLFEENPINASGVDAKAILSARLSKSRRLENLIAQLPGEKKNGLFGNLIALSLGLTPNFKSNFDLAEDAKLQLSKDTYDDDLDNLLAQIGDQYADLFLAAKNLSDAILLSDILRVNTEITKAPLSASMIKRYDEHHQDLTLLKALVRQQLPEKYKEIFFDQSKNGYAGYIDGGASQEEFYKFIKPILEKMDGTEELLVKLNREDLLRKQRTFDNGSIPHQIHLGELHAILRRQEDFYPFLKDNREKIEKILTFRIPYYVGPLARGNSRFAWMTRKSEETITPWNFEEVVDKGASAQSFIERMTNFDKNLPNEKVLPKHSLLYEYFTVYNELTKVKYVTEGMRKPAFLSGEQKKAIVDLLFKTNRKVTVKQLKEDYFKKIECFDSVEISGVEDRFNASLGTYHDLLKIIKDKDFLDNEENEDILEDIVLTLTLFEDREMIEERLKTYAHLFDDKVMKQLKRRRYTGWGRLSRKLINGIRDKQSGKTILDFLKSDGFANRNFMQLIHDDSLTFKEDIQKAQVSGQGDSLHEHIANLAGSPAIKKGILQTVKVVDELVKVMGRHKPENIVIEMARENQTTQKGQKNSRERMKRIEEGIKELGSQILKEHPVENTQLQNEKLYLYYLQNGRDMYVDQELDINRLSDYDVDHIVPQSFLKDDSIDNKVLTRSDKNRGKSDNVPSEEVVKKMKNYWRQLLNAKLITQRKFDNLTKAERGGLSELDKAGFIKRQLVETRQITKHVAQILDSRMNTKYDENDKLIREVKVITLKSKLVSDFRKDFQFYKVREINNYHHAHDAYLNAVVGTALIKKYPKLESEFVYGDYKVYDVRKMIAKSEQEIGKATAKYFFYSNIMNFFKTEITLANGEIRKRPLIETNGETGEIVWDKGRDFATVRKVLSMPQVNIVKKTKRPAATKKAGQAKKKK
# B3: St3-SpCas9: St3Cas9 with the PI domain of SpCas9, SEQ ID NO: 122 (protein)
# chain: MAPKKKRKVGIHGVPAAMTKPYSIGLDIGTNSVGWAVTTDNYKVPSKKMKVLGNTSKKYIKKNLLGVLLFDSGITAEGRRLKRTARRRYTRRRNRILYLQEIFSTEMATLDDAFFQRLDDSFLVPDDKRDSKYPIFGNLVEEKAYHDEFPTIYHLRKYLADSTKKADLRLVYLALAHMIKYRGHFLIEGEFNSKNNDIQKNFQDFLDTYNAIFESDLSLENSKQLEEIVKDKISKLEKKDRILKLFPGEKNSGIFSEFLKLIVGNQADFRKCFNLDEKASLHFSKESYDEDLETLLGYIGDDYSDVFLKAKKLYDAILLSGFLTVTDNETEAPLSSAMIKRYNEHKEDLALLKEYIRNISLKTYNEVFKDDTKNGYAGYIDGKTNQEEEDFYVYLKKLLAEFEGADYFLEKIDREDFLRKQRTFDNGSIPYQIHLQEMRAILDKQAKFYPFLAKNKERIEKILTFRIPYYVGPLARGNSDFAWSIRKRNEKITPWNFEDVIDKESSAEAFINRMTSFDLYLPEEKVLPKHSLLYETFNVYNELTKVRFIAESMRDYQFLDSKQKKDIVRLYFKDKRKVTDKDIIEYLHAIYGYDGIELKGIEKQFNSSLSTYHDLLNIINDKEFLDDSSNEAIIEEIIHTLTIFEDREMIKQRLSKFENIFDKSVLKKLSRRHYTGWGKLSAKLINGIRDEKSGNTILDYLIDDGISNRNFMQLIHDDALSFKKKIQKAQIIGDEDKGNIKEVVKSLPGSPAIKKGILQSIKIVDELVKVMGGRKPESIVVVVEMARENQYTNQGKSNSQQRLKRLEKSLKELGSKILKENIPAKLSKIDNNALQNDRLYLYYLQNGKDMYTGDDLDIDRLSNYDIDHIIPQAFLKDNSIDNKVLVSSASNRGKSDDVPSLEVVKKRKTFWYQLLKSKLISQRKFDNLTKAERGGLSPEDKAGFIQRQLVETRQITKHVARLLDEKFNNKKDENNRAVRTVKIITLKSTLVSQFRKDFELYKVREINDFHHAHDAYLNAVVASALLKKYPKLEPEFVYGDYPKYNSFRERKSATEKVYFYSNIMNIFKKSISLADGRVIERPLIEVNEETGESVWNKESDLATVRRVLSYPQVNVVKKTEVQTGGFSKESILPKRNSDKLIARKKDWDPKKYGGFDSPTVAYSVLVVAKVEKGKSKKLKSVKELLGITIMERSSFEKNPIDFLEAKGYKEVKKDLIIKLPKYSLFELENGRKRMLASAGELQKGNELALPSKYVNFLYLASHYEKLKGSPEDNEQKQLFVEQHKHYLDEIIEQISEFSKRVILADANLDKVLSAYNKHRDKPIREQAENIIHLFTLTNLGAPAAFKYFDTTIDRKRYTSTKEVLDATLIHQSITGLYETRIDLSQLGGDKRPAATKKAGQAKKKK
# Experiments:
# [1] = test system: Factor VII; details: LNP siRNA systems containing these lipids; cited from earlier work
# [2] = test system: genomic DNA in human embryonic kidney 293FT (HEK293FT) cells; assay: SURVEYOR nuclease assay of Cas9 and sgRNA mutants (Example 12); type: cell-based
# Experimental: (§1) Cells were transfected using Lipofectamine 2000 (Life Technologies) at 70-80% confluency following the manufacturer's recommended protocol.
# (§2) Genomic DNA was extracted using the QuickExtract DNA Extraction Solution (Epicentre) following the manufacturer's protocol.
# (§3) 400 ng total of the purified PCR products were mixed with 2 μl 10× Taq DNA Polymerase PCR buffer (Enzymatics) and ultrapure water to a final volume of 20 μl, and subjected to a re-annealing process to enable heteroduplex formation: 95° C. for 10 min, 95° C. to 85° C. ramping at −2° C./s, 85° C. to 25° C. at −0.25° C./s, and 25° C. hold for 1 min. After re-annealing, products were treated with SURVEYOR nuclease and SURVEYOR enhancer S (Transgenomics) following the manufacturer's recommended protocol, and analyzed on 4-20% Novex TBE poly-acrylamide gels (Life Technologies). Gels were stained with SYBR Gold DNA stain (Life Technologies) for 30 min and imaged with a Gel Doc gel imaging system (Bio-rad). Quantification was based on relative band intensities. Indel percentage was determined by the formula, 100×(1−(1−(b+c)/(a+b+c))^1/2), where a is the integrated intensity of the undigested PCR product, and b and c are the integrated intensities of each cleavage product.
# [3] = test system: target DNA with 5′-NGG PAM; assay: Cleavage of target DNA bearing 5′-NGG PAM by PI domain chimeras (Example 12); type: cell-based, human; details: 5′-GGGCT
# Experimental: as §1, §2, §3
Molecule,gene silencing potency series [1],other results
"1,2-dilinoleyloxy-keto-N,N-dimethyl-3-aminopropane [DLinKDMA]",DLinKC2-DMA>DLinKDMA>DLinDMA>>DLinDAP,
"CCCCC/C=C\C/C=C\CCCCCCCC(=O)OCC(CN(C)C)OC(=O)CCCCCCC/C=C\C/C=C\CCCCC (stereo not shown) [DLinDAP, 1,2-dilineoyl-3-dimethylammonium-propane]",DLinKC2-DMA>DLinKDMA>DLinDMA>>DLinDAP,
"CCCCC/C=C\C/C=C\CCCCCCCCOCC(CN(C)C)OCCCCCCCC/C=C\C/C=C\CCCCC (stereo not shown) [DLinDMA, 1,2-dilinoleyloxy-3-N,N-dimethylaminopropane]",DLinKC2-DMA>DLinKDMA>DLinDMA>>DLinDAP,
"CCCCC/C=C\C/C=C\CCCCCCCCC1(CCCCCCCC/C=C\C/C=C\CCCCC)OCC(CCN(C)C)O1 (stereo not shown) [DLinKC2-DMA, 1,2-dilinoleyl-4-(2-dimethylaminoethyl)-[1,3]-dioxolane]",DLinKC2-DMA>DLinKDMA>DLinDMA>>DLinDAP,
B1,,"activity relative to wild-type Cas9 ([2]; indel, SURVEYOR, n=3): ~50%"
B2,,DNA cleavage activity ([2]; Cas9 truncation and point mutants): abolished the cleavage activity
B3,,cleavage of target DNA with 5′-NGG PAM [3]: cleaved
